Source: US6995150B2, “Pharmaceutical compositions and uses for androst-5-ene-3β, 17β-diol” (Endorecherche, Inc., priority 1998, dated 2006)
Entries after “also recorded” stand apart in the source; their conditions may differ.

How the values were obtained:
[1] = tested on: human mammary tumor ZR-75-1 cells; settings: concentrations within range of plasma levels in adult women; cited from earlier work
ovariectomized rats [2] = experiment: Uterine weight in ovariectomized rats, percutaneous administration twice daily for 7 days; format: in vivo, rat; settings: for effect on uterine weight: percutaneous; for maximal reversal of the inhibitory effect of ovariectomy on uterine weight: 100 mg percutaneous twice daily, 7 days
Experimental: (§1) Intact animals are used as additional controls. The compounds were dissolved in 50% ethanol-50% propylene glycol and were administered in 0.1 ml on the dorsal skin area (2 cm×2 cm).
(§2) Male and female Sprague-Dawley rats [Crl: CD (SD)Br] weighing 225-250 g and 175-200 g, respectively, were obtained from Charles River Canada Inc. (St-Constant, Québec) and housed 2 per cage under a regimen of 14 h of light/da, (lights on at 07:15 h). Animals received Purina rat chow and water ad libitum. The animal studies were conducted to the “Guideline for Care and use of Experimental Animals”.
(§3) The animals were randomly divided into the indicated groups (8 and 10 rats per group for subcutaneous and topical administration, respectively). The animals of the appropriate groups were bilaterally ovariectomized (OVX) or orchiectomized (ORCH) under ether anesthesia while other rats were used as intact controls.
(§4) Seven days after starting treatment or approximately 12 h after last administration of the steroid, the animals were killed by decapitation. Blood samples were collected individually and serum was frozen at −20° C. until assayed. Uteri, ovaries, ventral prostates, dorsal prostates and seminal vesicles were immediately removed, freed from connective and adipose tissue, weighed, frozen in liquid nitrogen, and stored at −80° C. until assayed. Three rats from the indicated treatment groups were perfused with paraformaldehyde for in situ hybridization.

orchiectomized rats [3] = experiment: Prostate and seminal vesicle weight in orchiectomized rats, subcutaneous administration; format: in vivo, rat; settings: ORCH rats; for ED50 of maximal effect on prostate weight: half of each compound's own maximal effect
Experimental: (§5) Intact animals are used as additional controls.
as §5, §2, §3, §4

orchiectomized rats [4] = experiment: Ventral prostate and seminal vesicle weight in orchiectomized rats, percutaneous administration; format: in vivo, rat
Experimental: as §5, §5, §2, §3, §4

[5] = Serum steroid concentrations (DHEA, 5-DIOL, 4-dione, testosterone, DHT) in ovariectomized rats, percutaneous administration; settings: for serum levels of 5-DIOL, 5-DIOL versus DHEA: higher doses; for concentration at 12 h: female, Sprague-Dawley, rat, in vivo
Experimental: as §1, §1, §1
Intact animals are used as additional controls. The compounds were dissolved in 50% ethanol-50% propylene glycol and were administered in 0.1 ml on the dorsal skin in area (2 cm×2 cm).
as §1, §2, §3, §4
Steroid extraction, Ethanol (5 ml) was added to 1 ml serum and centrifugation at 2000×g was preformed for 15 min. The resulting pellet was further extracted with 2 ml ethanol and, after a second centrifugation at 2000×g for 15 min, the two supernatants were combined. The suspension was recentrifuged as described above and the supernatant was decanted and combined with the previously obtained ethanol extracts. The organic solvent was then evaporated under nitrogen and the residue was dissolved in 1 ml water: methanol (95:5, v/v). The C-18 columns (Bound-Elut, Amersham, Bucks, U.K.) were conditioned by passing consecutively 10 ml methanol, 10 ml water and 10 ml methanol/water (5:95, v/v). The extracts solubilized in water:methanol (95:5, v/v) were then deposited on the C-18 columns. After washing the columns with 2 ml water:methanol (95:5, v/v) and 5 ml methanol:water (50:50, v/v), 5 ml methanol:water (85:15, v/v) were added to eluate the non-conjugated steroids.
Chromatography on Sephadex LH-20 columns (Pharmacia, Uppsala, Sweden) was performed as previously described (Bélanger et al., 1988). In brief, steroids were solubilized in 1 ml isooctane/toluene/methanol (90:5:5, v:v:v) and deposited on the LH-20 columns. Fractions were collected and, after evaporation of the organic solvent, the concentration of the various steroids was determined by radioimmunoassay as previously described (Bélanger et al., 1980; Bélanger et al., 1988; Bélanger et al., 1990)
Radioimmunoassay data were analyzed using a program based on model II of Rodbard and Lewald (Rodbard, 1974). Plasma steroid levels are shown as the means±SEM of duplicate determinations of individual samples.

ovariectomized rats [6] = experiment: Serum LH concentration in ovariectomized rats, percutaneous administration; format: in vivo, rat; settings: OVX rats
Experimental: as §1, §2, §3, §4
Serum LH was measured by double-antibody radioimmunoassay using rat hormones (LH-I-6 for iodination; LH-RP-2 as standard), and the rabbit antisera anti-r-LH-S-8, generously supplied by the National Pituitary Program, Baltimore, USA.
(§6) Radioimmunoassay data were analyzed using a program based on model II of Rodbard and Lewald (Rodbard, 1974). Plasma steroid levels are shown as the means±SEM of duplicate determinations of individual samples. In situ hybridization data were obtained as follows: for each prostatic tissue section, 20 randomly selected areas measuring 0.25 mm^2 (excluding acinar lumen) were analyzed using an Image Research Analysis System (Amersham, Arlington Heights, Ill.) and the mean optical density value for each section was calculated. Data are shown as the means±SEM of 20 readings from 6-8 prostatic sections originating from ventral 3 prostates. Statistical significance was measured according to the multiple range test of Duncan-Kramer (Kramer, 1956).

ovariectomized rats [7] = experiment: Uterine weight in ovariectomized rats, subcutaneous administration twice daily for 7 days; format: in vivo, rat; settings: for dose giving half-maximal stimulation of uterine weight: OVX rats
Experimental: as §5, §2, §3, §4

MCF-7 cells = settings: cited from earlier work
[8] = tested on: mRNAs encoding the C1 and C3 components of prostatic binding protein; experiment: PBP-C1 and PBP-C3 mRNA in the ventral prostate of orchiectomized rats, percutaneous administration; format: in vivo, rat; settings: ORCH rats, depending on dosage
Experimental: as §5, §5, §2
The animals were randomly divided into the indicated groups (8 and 10 rats per group for subcutaneous and topical administration, respectively). […]
as §6, with “Plasma steroid levels are shown as the means±SEM of duplicate determinations of individual samples.” left out

Row | Compound | effect on uterine weight (ovariectomized rats [2]; 10 mg and 30 mg doses) | maximal reversal of the inhibitory effect of ovariectomy on uterine weight (ovariectomized rats [2]) | effect on uterine weight (ovariectomized rats [2]; 1 and 3 mg doses) | ED50, dose giving half-maximal reversal of the effect of orchiectomy on prostate weight (orchiectomized rats [3]) | half-maximal reversal of the effect of orchiectomy on seminal vesicle weight (dose) (orchiectomized rats [3]) | ED50 of maximal effect on prostate weight (orchiectomized rats [3]) | serum levels of 5-DIOL, 5-DIOL versus DHEA ([5]; percutaneous, OVX rats) | inhibition of serum LH below the value in intact control animals (ovariectomized rats [6]; 30 mg dose) | inhibition of serum LH below the value in intact control animals (ovariectomized rats [6]; 100 mg dose) | dose giving half-maximal stimulation of uterine weight (ovariectomized rats [7]) | further results
1 | C[C@]12CC[C@H]3[C@@H](CC=C4C[C@@H](O)CC[C@@]43C)[C@@H]1CC[C@@H]2O [5-DIOL, androst-5-ene-3β,17β-diol] | comparable stimulation | 52% | no significant effect | 1 mg | ~1.2 mg | 1.2 mg | no significant difference | approximately 35% | ~70% | 0.5 mg | cell proliferation [1]: enhances cell proliferation; progesterone receptor levels [1]: enhances; reversal of the effect of castration on ventral prostate weight (orchiectomized rats [4]; 15 mg dose, percutaneous): 50%; serum DHEA level ([5]; 3, 10, 30 and 100 mg dosages, percutaneous, OVX rats): relatively constant but low level; levels of serum DHT ([5]; across the dosage range, percutaneous, OVX rats): substantially constant and relatively low; serum levels of 5-DIOL compared with the other steroid ([5]; lower doses, 1 and 3 mg, percutaneous, OVX rats): higher levels; serum LH (ovariectomized rats [6]; 10 mg dose): 0.86 ± 0.17 ng/mL; reversal of the effect of 1-week ovariectomy on uterine weight (ovariectomized rats [7]; 0.3 mg): 90%; estrogen-dependent synthesis of the 52 kDa glycoprotein (MCF-7 cells): increases
2 | C[C@]12CC[C@H](O)CC1=CC[C@@H]1[C@@H]2CC[C@]2(C)C(=O)CC[C@@H]12 [DHEA, dehydroepiandrosterone] | comparable stimulation | 42% | no significant effect | 1 mg | ~2.5 mg | 2.5 mg | no significant difference | approximately 35% | ~70% | ~2.5 mg | stimulation of PBP-C1 and PBP-C3 mRNA levels by DHEA relative to 5-DIOL [8]: two to five times the effect; also recorded: two to five times more potent; reversal of the inhibitory effect of orchiectomy on ventral prostate weight (orchiectomized rats [4]; 10 mg dose, percutaneous): about 75%; androgenic activity of DHEA relative to 5-DIOL where equivalent estrogenic effects are provided (orchiectomized rats [4]; percutaneous administration): two to three times more androgenic activity; potency of DHEA relative to 5-DIOL in increasing seminal vesicle weight (orchiectomized rats [4]; percutaneous, ORCH rats): 1 fold; concentration at 12 h ([5]; 3 mg): 1.74 ± 0.3 nM; concentration at 12 h ([5]; 30 mg): 12.9 ± 3.69 nM; concentration at 12 h ([5]; 100 mg): 39.2 ± 6.5 nM; inhibitory effect on serum LH (ovariectomized rats [6]; 10 mg dose): 61%; effect on uterine weight (ovariectomized rats [7]; 0.3 mg): no significant effect
